Measured values as given in patent US7425410B2, “Methods for diagnosing a bipolar disorder and unipolar disorder” (Free State Diagnostics, LLC, priority 2003, dated 2008).

Experiments:
[1] = test system: lymphoblasts; assay: Rate of drop in membrane potential (repolarization rate) in lymphoblasts; assay type: cell-based, human
Method: As the Na^+K^+ ATPase density on the cell surface increases, the intracellular sodium concentration decreases and the membrane potential begins to drop as a result of repolarization of the cell membrane. The rate of drop in membrane potential (repolarization rate) in affected cells incubated for 30 minutes in both K^+-free buffer and in K^+-containing (regular) buffer in the presence or absence of 30 μM ethacrynate was compared to that of unaffected cells incubated for 30 minutes in both K^+-free buffer and in K^+-containing buffer in the presence or absence of 30 μM ethacrynate. The difference in the median values between the two groups was greater than would be expected by chance.
The rate of drop in membrane potential after incubation with the protein kinase C (PKC) activator, phorbol 12-myristate 13-acetate (PMA), was compared in affected cells to that of unaffected cells. The membrane potential of these cells was determined by measuring the fluorescence intensity as described above. The rate of drop in membrane potential (repolarization rate) in affected cells was compared to that in unaffected cells in K^+-free buffer in the presence or absence of 2 μM PMA. The difference in the median values between the two groups was greater than would be expected by chance.
The rate of drop in membrane potential (repolarization rate) in affected cells incubated for 30 minutes in both K^+-free buffer and in K^+-containing (regular) buffer in the presence or absence of 2 μM PMA was compared to that of unaffected cells incubated for 30 minutes in both K^+-free buffer and in K^+-containing buffer in the presence or absence of 2 μM PMA. The difference in the median values between the two groups was greater than would be expected by chance.

[2] = test system: lymphoblasts; assay: Membrane potential of lymphoblasts by DiOC6(3) fluorescence intensity ratio; assay type: cell-based, human
Method: Three groups of immortalized lymphoblast samples were obtained from the Human Genetic Mutant Cell Repository (Coriell Institute for Medical Research, Camden N.J.). The samples are shown in Table 4 below and included six from affected (bipolar I disorder) patients (A1 through A6), six from their siblings (S1 through S6), and six from unrelated normal control subjects matched by age and sex (N1 through N6).
The cells were grown at 37° C. in RPMI 1640 culture medium (GIBCO, Life Technologies, Gaithersburg, Md., USA) with 15% fetal bovine serum and 1% penicillin.
The membrane potentials of the bipolar I cells shown in Table 4 above (as well as in all other experiments, except where indicated) were measured using the following protocol. The cells cultured in the media described above were centrifuged at 210 g for 5 minutes at room temperature, then suspended in 3 ml of K^+-containing stock buffer (5 mM KCl, 4 mM NaHCO3, 5 mM HEPES, 134 mM NaCl, 2.3 mM CaCl2, and 5 mM glucose). The cells were counted and the desired number of cells were again suspended in the K^+-containing buffer. The membrane potentials were measured using 3,3′-dihexyloxacarbocyanine iodide DiOC6(3), a cell-permeant, voltage sensitive, green-fluorescent dye (Molecular Probes Inc. Eugene, Oreg. USA). The cells were preincubated for 30 minutes before measurements. The preincubated cell suspension was centrifuged at 210 g for 5 minutes and the cells were resuspended in the K^+-containing buffer without the dye in the buffer.
A fluorescence spectrometer (F2500 Hitachi, Japan) was used for the measurement of the membrane potential by measuring the fluorescence intensity of DiOC6(3), which is directly proportional to the membrane potential. The intensity of fluorescence was measured at an excitation wavelength of 488 nm and an output wavelength of 540 nm. The time of recordings varied from 10 seconds to 1500 seconds depending upon the experiment.
Membrane potential was expressed according to fluorescence intensity using the following equation: I=CV, wherein I is the fluorescence intensity of a lipophilic fluorescent dye DiOC6(3) being only one example of such a dye); V is the voltage or membrane potential; and C is a constant that can vary depending on a number of factors such as, but not limited to, temperature, lamp intensity, number of cells, concentration of the fluorescent dye, incubation time, and lipid composition of cells used. By using the ratio of the fluorescence intensity (I1) of one sample of cells to the fluorescence intensity (I2) of another sample of cells, the constant (C) could be canceled out
Membrane potentials were also measured in K^+-free buffer to enable comparison with membrane potentials in K^+-containing buffer. As used herein, K^+-free buffer contains all of the components of the K^+-containing buffer, except potassium (4 mM NaHCO3, 5 mM HEPES, 134 mM NaCl, 2.3 mM CaCl2, and 5 mM glucose). Constant volumes of samples of each cell line were added to an equal volume of buffer containing an equal volume of dye. […] Each variable was constant for each cell line in both buffers, so that the ratio of intensities was a true ratio-metric measurement.
The relative fluorescence intensity ratio of cells in K^+-free buffer was compared to that of cells in K^+-containing buffer with or without 30 μM ethacrynate. […] The membrane potential of these cells was determined by measuring the fluorescence intensity as described above. […]

[3] = test system: whole blood cells; assay: Open clinical trial: fluorescence intensity ratio of whole blood cells; assay type: cell-based, human
Method: A pilot clinical trial was conducted using blood samples from 12 clinically affected bipolar patients and 11 unaffected controls. The medical histories of the patients were known to the investigator measuring the membrane potentials; therefore, the trials described in this example were open trials. The patients ranged from 19 years to 77 years in age, and included males and females from different ethnic groups. Similarly, the controls ranged from 25 to 67 including males and females from different ethnic groups. The patients were all hospitalized following a confirmed manic episode. During the drawing of samples, all patients were on mood stabilizers, either lithium or valproate.
Because the volume of blood required to collect enough lymphocytes was beyond that permitted by the current protocol, the membrane potential of whole blood cells was determined. The volume of whole blood required was approximately 1 ml. The blood samples were kept on ice until they were stored at 4° C. All of the samples were tested within 48 hours.
Whole blood samples drawn from patients and controls were suspended in K^+-containing buffer without ethacrynate and in K^+-free buffer with 30 μM ethacrynate or with 100 mM sorbitol. The fluorescent dye DiOC6(3) was added to both suspensions and incubated for 30 minutes. The cell suspensions loaded with the dye were centrifuged, drained and resuspended in the respective buffers. The fluorescence intensity was measured for 10 seconds and the ratio of the intensity in K^+-free buffer to the intensity in K^+-containing buffer was calculated.

[4] = test system: whole blood cells; assay: Blind clinical trial and individual patient diagnosis: fluorescence intensity ratio of whole blood cells; assay type: cell-based, human; details: 30 μM ethacrynate
Method: A clinical trial was conducted using blood samples from the following four groups: schizophrenic, bipolar, and unipolar patients, as well as controls. The medical histories of these patients were unknown to the investigator measuring the membrane potentials; therefore, the trials described in this example were blind trials. The sample size was determined to be 5 with a power of 0.9, an alpha of 0.05, a difference in mean of 0.08, and a standard deviation of 0.03. However, more than 10 samples for each category were tested for a total sample size of 59. If a patient matched a diagnosis, structured clinical interviews according to DSM-IV guidelines were performed.
Whole blood samples drawn from patients and controls were suspended both in K^+-containing buffer and in K^+-free buffer with 30 μM ethacrynate or with 100 μM sorbitol. The fluorescent dye DiOC6(3) was added to both suspensions and incubated for 30 minutes. The cell suspensions loaded with the dye were centrifuged, drained and resuspended in the respective buffers. The fluorescence intensity was measured for 10 seconds and the ratio of the intensity in K^+-free buffer to the intensity in K^+-containing buffer was calculated.
An individual patient's cell sample was tested as described herein and six to twelve ratios were calculated. These values were treated as a group and compared with a normal control group (negative control) and a bipolar group (positive control).

[5] = antibiotic ionophore; cited from earlier work
[6] = Bipolars, 30 μM ethacrynate, whole blood
[7] = Controls, 30 μM ethacrynate, whole blood
[8] = blind trial, Bipolars, whole blood
[9] = blind trial, Controls, whole blood
[10] = blind trial, Schizophr., whole blood
[11] = blind trial, Unipolars, whole blood

SMILES: CCCCCCCCCCCCCC(=O)O[C@@H]1[C@@H](C)[C@@]2(O)[C@@H](C=C(CO)C[C@]3(O)C(=O)C(C)=C[C@@H]23)[C@@H]2C(C)(C)[C@]12OC(C)=O [PMA, phorbol 12-myristate 13-acetate]
- relative ratio of repolarization rates in affected cells compared to unaffected cells ([1]; 2 μM PMA, 30 min, K+-free and K+-containing buffer, P=0.046): significantly lower
- repolarization rate (with PMA/without PMA) in affected cells compared to unaffected cells ([1]; K+-free buffer, 2 μM PMA, t-test P=0.029): significantly different

SMILES: C=C(CC)C(=O)c1ccc(OCC(=O)O)c(Cl)c1Cl [ethacrynate]
- relative intensity ratio of affected cells compared to unaffected cells ([2]; 30 μM ethacrynate, 30 min, K+-free vs K+-containing buffer, t-test P=0.009): significantly higher
- intensity ratio (membrane potential with ethacrynate/without ethacrynate) of affected cells compared to unaffected cells ([2]; K+-free buffer, 30 μM ethacrynate, t-test P=0.032): significantly higher
- relative intensity ratio, mean (intensity ratio with/without ethacrynate in K+-free buffer divided by that in K+-containing buffer) ([2]; affected (bipolar I) cells, 30 μM ethacrynate, 30 min): approximately 1.04
- relative intensity ratio, mean (intensity ratio with/without ethacrynate in K+-free buffer divided by that in K+-containing buffer) ([2]; unaffected (sibling and normal) cells, 30 μM ethacrynate, 30 min): approximately 0.79
- relative rate of repolarization in affected cells compared to unaffected cells ([1]; 30 μM ethacrynate, 30 min, K+-free and K+-containing buffer, P=0.041): significantly higher
- mean fluorescence intensity ratio of bipolar samples compared to control samples ([3]; 30 μM ethacrynate, t-test): significantly lower
- ratio of fluorescence intensity in K+-free buffer with ethacrynate to K+-containing buffer without ethacrynate, Mean [3, 6]: 0.780
- ratio of fluorescence intensity in K+-free buffer with ethacrynate to K+-containing buffer without ethacrynate, Median [3, 6]: 0.778
- ratio of fluorescence intensity in K+-free buffer with ethacrynate to K+-containing buffer without ethacrynate, Mean [3, 7]: 0.893
- ratio of fluorescence intensity in K+-free buffer with ethacrynate to K+-containing buffer without ethacrynate, Median [3, 7]: 0.893
- ratio of fluorescence intensity in K+-free buffer with ethacrynate to K+-containing buffer without ethacrynate, Mean ([4]; Patient A): 0.766
- ratio of fluorescence intensity in K+-free buffer with ethacrynate to K+-containing buffer without ethacrynate, Median ([4]; Patient A): 0.763
- fluorescence intensity ratio of bipolar samples compared to the other three groups ([4]; blind trial, ANOVA): significantly lower
- fluorescence intensity ratio of unipolar samples compared to the other three groups ([4]; blind trial, ANOVA): significantly higher
- ratio of fluorescence intensity in K+-free buffer with ethacrynate to K+-containing buffer without ethacrynate, Mean [4, 8]: 0.768
- ratio of fluorescence intensity in K+-free buffer with ethacrynate to K+-containing buffer without ethacrynate, Median [4, 8]: 0.773
- ratio of fluorescence intensity in K+-free buffer with ethacrynate to K+-containing buffer without ethacrynate, Mean [4, 9]: 0.850
- ratio of fluorescence intensity in K+-free buffer with ethacrynate to K+-containing buffer without ethacrynate, Median [4, 9]: 0.850
- ratio of fluorescence intensity in K+-free buffer with ethacrynate to K+-containing buffer without ethacrynate, Mean [4, 10]: 0.870
- ratio of fluorescence intensity in K+-free buffer with ethacrynate to K+-containing buffer without ethacrynate, Median [4, 10]: 0.863
- ratio of fluorescence intensity in K+-free buffer with ethacrynate to K+-containing buffer without ethacrynate, Mean [4, 11]: 0.898
- ratio of fluorescence intensity in K+-free buffer with ethacrynate to K+-containing buffer without ethacrynate, Median [4, 11]: 0.901

SMILES: CC[C@@]1([C@@H]2O[C@@H]([C@H]3O[C@@](O)(CO)[C@H](C)C[C@@H]3C)C[C@@H]2C)CC[C@H]([C@]2(C)CC[C@]3(C[C@H](O)[C@@H](C)[C@@H]([C@@H](C)[C@@H](OC)[C@H](C)C(=O)O)O3)O2)O1 [monensin]
- intensity ratio (membrane potential with monensin/without monensin) of affected cells compared to unaffected cells ([2]; K+-free buffer, 10 μM monensin, 30 min, t-test P=0.009): significantly lower
- preference for Na+ over K+ [5]: 10 fold

SMILES: OC[C@@H](O)[C@@H](O)[C@H](O)[C@@H](O)CO [sorbitol]
- fluorescence intensity ratios of bipolar cells with sorbitol compared to ethacrynate ([3]; bipolar patients, 100 mM sorbitol in K+-free buffer, whole blood): comparable
